Data taken from patent US10105400B2, “Composition of chicken liver hydrolysates and method for improving alcohol metabolism, as well as preventing and treating liver fibrosis” (NATIONAL TAIWAN UNIVERSITY, priority 2016, dated 2018).
Marks after values point to notes of the source that are not given here.

Tests used:
collagen = experiment: Collagen deposition in livers (Sirius red stain, collagen kit), TAA model; format: in vivo, Wistar rats
Protocol: (§1) Forty male Wistar rats of 5-week old were purchased from BioLASCO Taiwan Co., Ltd. (Taipei, Taiwan). Two rats were housed in one cage in an animal room at 22±2° C. with a 12/12 h light-dark cycle. After one week of acclimation, the mice were randomly divided into 5 groups:
(§2) (b) The thioacetamide group (The TAA group): intraperitoneal injection of 100 mg TAA/kg-body weight (bw) in 0.3 mL ddH2O and administration of 0.5 mL ddH2O by oral gavage;
(c) The composition of the chicken liver hydrolysates with low dosage (The CLH-L group): intraperitoneal injection of 100 mg TAA/kg-bw in 0.3 mL ddH2O and administration of 200 mg/kg-bw CLH in 0.5 mL ddH2O by oral gavage; […]
(§3) The experiment was conducted by a complete randomized design. The raw data was expressed as “mean±SEM”. The data was analyzed by analysis of variance (ANOVA) and Fisher's Least Significant Different (LSD) test was used to distinguish significant differences among groups. […]
Sirius red dye can bind to the helical structure of the collagen, and thus the Sirius red stain assay can be used to examine the deposition of collagen in livers. Furthermore, liver collagen levels of the mice are also determined by using commercial kits (Chondres Inc., Redmond, Wash., USA). […] The collagen content in the sample is calculated by using a standard curve plotted by bovine Type I collagen and expressed as μg/mg-protein. […]

[1] = test system: thioacetamide (TAA)-treated; experiment: Biochemical indexes of liver in sera, TAA liver fibrosis model; format: in vivo, Wistar rats; conditions: serum; CNS group: 200 mg/kg-bw carnosine oral gavage daily, 10 weeks, TAA 100 mg/kg-bw i.p.
Protocol: as §1, §2
(§4) (c) The composition of the chicken liver hydrolysates with low dosage (The CLH-L group): intraperitoneal injection of 100 mg TAA/kg-bw in 0.3 mL ddH2O and administration of 200 mg/kg-bw CLH in 0.5 mL ddH2O by oral gavage;
(§5) (d) The composition of the chicken liver hydrolysates with high dosage (The CLH-H group): intraperitoneal injection of 100 mg TAA/kg-bw in 0.3 mL ddH2O and administration of 600 mg/kg-bw CLH in 0.5 mL ddH2O by oral gavage; and (e) The carnosine group (The CNS group): intraperitoneal injection of 100 mg TAA/kg-bw in 0.3 mL ddH2O and administration of 200 mg/kg-bw carnosine in 0.5 mL ddH2O by oral gavage;
(§6) The experiment lasted for 10 weeks. The rats were injected with ddH2O or TAA intraperitoneally once a week and administered of ddH2O, the composition of the chicken liver hydrolysates or carnosine every day. One kilogram of the chow diet comprises 487 g carbohydrate, 239 g protein, 50 g fat, 51 g fibre and 70 g ash (Laboratory Rodent Diet 5001, PMI Nutrition International/Purina Mills LLC, Richmond, Ind., USA). All rats were fasted overnight before euthanized at the last day of experiment, the organs and the tissues were collected and weighted, and stored at −80° C. for further analysis.
(§7) The experiment was conducted by a complete randomized design. The raw data was expressed as “mean±SEM”. The data was analyzed by analysis of variance (ANOVA) and Fisher's Least Significant Different (LSD) test was used to distinguish significant differences among groups. All statistical analysis of the data was performed by SAS9.2 software (SAS Institute Inc, Cary, N.C., USA). If there is no significant difference between two groups, these groups werelabeled with one identical letter.

[2] = test system: thioacetamide (TAA)-treated mice; experiment: as above; format: in vivo, Wistar rats; conditions: serum; CNS group: 200 mg/kg-bw carnosine oral gavage daily, 10 weeks, TAA 100 mg/kg-bw i.p.
Protocol: as §1, §2, §4, §5, §6, §7

[3] = Body weight and feed efficiency, thioacetamide (TAA) liver fibrosis model; format: in vivo, Wistar rats; conditions: CNS group: 200 mg/kg-bw carnosine oral gavage daily, 10 weeks, TAA 100 mg/kg-bw i.p.
Protocol: as §1
(a) The control group (The CON group): intraperitoneal injection of 0.3 mL normal saline, and administration of 0.5 mL ddH2O by oral gavage;
as §2, §4, §5, §6, §3

[4] = Relative sizes of organs and tissues, TAA liver fibrosis model; format: in vivo, Wistar rats
Protocol: as §1, §2, §4, §5, §6, §7

lipid peroxidation = experiment: Thiobarbituric acid reactive substance (TBARS) value of sera and livers, alcohol liquid diet mice; format: in vivo, C57/BL/6J (B6) mice; conditions: SLM group: 150 mg/kg-bw silymarin oral gavage, 8 weeks, ethanol diet
Protocol: (§8) Forty eight male C57/BL/6J (B6) mice of 8-week old were purchased from the Laboratory Animal Center of National Taiwan University. The body weight of these B6 mice were approximately 19 g to 21 g. Two mice were housed in one cage in an animal room at 22±2° C. with a 12/12 hr light-dark cycle. After one week of acclimation, the mice were randomly divided into 6 groups: […]
(§9) (f) The silymarin group (The SLM group): administered with the Lieber-DeCarli regular ethanol diet and 150 mg/kg-bw of silymarin in 0.2 mL ddH2O by oral gavage.
(§10) The animal experiment lasted for 8 weeks; the body weight of each mouse was recorded at the beginning and the end of the experiment. The daily liquid feed (mL) intakes as a food intake of each mouse was calculated. […]
(§11) The experiment was conducted by a complete randomized design. […] The data was analyzed by one way-analysis of variance (ANOVA) and Fisher's Least Significant Different test to distinguish significant differences among groups. […]
(§12) To evaluate the antioxidative ability of the composition of the chicken liver hydrolysates, the ABTS^+ free radical clearing ability is tested and represented as trolox equivalent antioxidant capacity (TEAC). The lipid peroxidation is also determined by thiobarbituric acid reactive substance (TBARS) value.

ABTS+ free radical = experiment: Trolox equivalent antioxidant capacity (TEAC) of sera and livers, alcohol liquid diet mice; format: in vivo, C57/BL/6J (B6) mice; conditions: SLM group: 150 mg/kg-bw silymarin oral gavage, 8 weeks, ethanol diet
Protocol: as §8, §9, §10, §11, §12

[5] = Body weight, food intake and relative sizes of organs and tissues of mice fed alcohol liquid diet; format: in vivo, C57/BL/6J (B6) mice; conditions: SLM group: 150 mg/kg-bw silymarin oral gavage, 8 weeks, ethanol diet
Protocol: Forty eight male C57/BL/6J (B6) mice of 8-week old were purchased from the Laboratory Animal Center of National Taiwan University. The body weight of these B6 mice were approximately 19 g to 21 g. Two mice were housed in one cage in an animal room at 22±2° C. with a 12/12 hr light-dark cycle. After one week of acclimation, the mice were randomly divided into 6 groups:
(a) The control group (the CON group): administered with the control liquid diet and 0.2 mL ddH2O by oral gavage.
(b) The ethanol group (the EtOH group): administered with the Lieber-DeCarli regular ethanol diet and 0.2 mL ddH2O by oral gavage.
(c) The composition of the chicken liver hydrolysates with low dosage (The CLH-L group): administered with the Lieber-DeCarli regular ethanol diet and 80 mg/kg-body weight (bw) of the composition of the chicken liver hydrolysates in 0.2 mL ddH2O by oral gavage.
(d) The composition of the chicken liver hydrolysates with medium dossage (The CLH-M group): administered with the Lieber-DeCarli regular ethanol diet and 320 mg/kg-bw of the composition of the chicken liver hydrolysates CLH in 0.2 mL ddH2O by oral gavage.
(e) The composition of the chicken liver hydrolysates with high dosage (The CLH-H group): administered with the Lieber-DeCarli regular ethanol diet and 1280 mg/kg-bw of the composition of the chicken liver hydrolysates in 0.2 mL ddH2O by oral gavage.
as §9
The animal experiment lasted for 8 weeks; the body weight of each mouse was recorded at the beginning and the end of the experiment. The daily liquid feed (mL) intakes as a food intake of each mouse was calculated. Mice were sacrificed after 8 weeks and the blood, heart, kidney, epididymal fat tissue, and perirenal fat tissue were all collected, weighted and then stored at −80° C. for further analysis.
The experiment was conducted by a complete randomized design. The raw data was presented as “mean±standard error of the mean (SEM)”. The data was analyzed by one way-analysis of variance (ANOVA) and Fisher's Least Significant Different test to distinguish significant differences among groups. All statistical analysis of data was performed by SAS9.2 software (SAS Institute Inc, Cary, N.C., USA). If there is no significant difference between two groups, these groups were labeled with one identical letter.

[6] = CNS group: 200 mg/kg-bw carnosine oral gavage daily, 10 weeks, TAA 100 mg/kg-bw i.p.

Structure (SMILES): NCCC(=O)N[C@@H](Cc1cnc[nH]1)C(=O)O [CNS, carnosine]
- liver collagen content (collagen; CNS group (carnosine 200 mg/kg-bw) compared to TAA group, FIG. 7(B)): significantly decreased
- collagen deposition in livers (Sirius red stain) (collagen; CNS group (carnosine 200 mg/kg-bw) vs TAA group, FIG. 7(A)): remarkably decreased
- ALT [1]: 63.88 ± 5.86^b U/L
- AST [2]: 211.00 ± 24.57^b U/L
- Blood urea nitrogen [2]: 15.4 ± 0.89 mg/dL
- Total cholesterol [2]: 52.38 ± 3.53^a mg/dL
- Total protein [2]: 4.26 ± 0.24^b g/dL
- Triglyceride [2]: 33.25 ± 3.19^b mg/dL
- Feed efficiency [3]: 8.89 ± 0.33^b %
- Final body weight [3]: 380.61 ± 10.47^b g
- Weight increase [3]: 163.99 ± 7.63^a g
- Relative size Heart [4, 6]: 0.31 ± 0.01^a g/100 g-bw
- Relative size Kidney [4, 6]: 0.74 ± 0.01^a g/100 g-bw
- Relative size Liver [4, 6]: 4.14 ± 0.09^a g/100 g-bw
- Relative size Perirenal fat [4, 6]: 1.47 ± 0.11^a g/100 g-bw
- Relative size Spleen [4, 6]: 0.31 ± 0.02^a g/100 g-bw
- relative sizes of liver, kidney and spleen ([4]; carnosine 200 mg/kg-bw vs TAA group, p>0.05): does not decrease

Structure (SMILES): COc1cc(C2Oc3cc([C@H]4Oc5cc(O)cc(O)c5C(=O)[C@@H]4O)ccc3OC2CO)ccc1O (stereo partly drawn) [SLM, silymarin]
- TBARS Liver (lipid peroxidation): 0.64 ± 0.12^ab nmole MDA eq./mg-protein
- TBARS Serum (lipid peroxidation): 52.62 ± 2.26^bc nmole MDA eq./mL
- TEAC Liver (ABTS+ free radical): 294.16 ± 14.82^a nmole/mg-protein
- TEAC Serum (ABTS+ free radical): 4.48 ± 0.18^b nmole/mL
- Relative size Epididymal fat tissue [5]: 1.68 ± 0.15^bc g/100 g-bw
- Relative size Heart [5]: 0.45 ± 0.01^ab g/100 g-bw
- Relative size Kidney [5]: 1.19 ± 0.04^ab g/100 g-bw
- Relative size Liver [5]: 4.45 ± 0.06^a g/100 g-bw
- Relative size Perirenal fat tissue [5]: 0.37 ± 0.04^b g/100 g-bw
- Relative size Spleen [5]: 0.18 ± 0.01^b g/100 g-bw
